{
  "source": "patent USRE43712E1",
  "about": "“Methods for assaying for antidepressant therapy markers” (The Board of Trustees of the Uniersity of Illinois, priority 2000, dated 2012)",
  "key": {"Gsα [1]": {"system": "Gsα", "test": "Detergent extraction of Gsα from rat synaptic membrane after chronic antidepressant treatment", "assay_type": "in vivo", "conditions": "for GsαL in the Triton X-100 extract versus control / GsαL in the Triton X-114 extract versus control: rat synaptic membrane, 21 days treatment", "experimental": "C6-2B cells (between passages 20 and 40) were grown in 175-cm^2 flasks in Dulbecco's modified Eagle medium, 4.5 g of glucose/L, 10% bovine serum, in a 10% CO2 atmosphere, at 37° C. for 3 days after splitting. […] Male Sprague-Dawley rats weighing 150-200 g were fed ad libitum and maintained in a 12-h light/dark cycle. […] 36:803-838, 1989]. […] Rat cerebral cortex membranes were prepared according to the method of Rasenick et al. [Nature, 294:560-562; 1981].\nMembrane proteins were extracted sequentially from C6-2B or rat synaptic membranes as described [Yan et al., J. Neurochem., 66:1489-1495; 1996]. These membranes were stirred on ice in HEPES (15 mM, pH 7.4) containing 1% Triton X-100 for 60 min followed by centrifugation at 100,000 g for 60 min at 4° C. The supernatant was reserved (Triton X-100 extract), and the resulting pellet was resuspended in Tris (15 mM, pH 7.4) containing 1.4% Triton X-114 and 150 mM NaCl. The solution was stirred for 60 min at 4° C. and centrifuged for 30 min at 100,000 g in the cold. The supernatant was saved (Triton X-114 extract). These supernatants and remaining pellet (remainder) were subjected to sodium dodecyl sulfate (SDS)-polyacrylamide gel electophoresis (PAGE) using 10% gels. All of the extraction buffers contained 1 mM PMSF and 1 mM EGTA.\nRat cortex membrane, C6-2B cell membranes, or Triton extracts of each membrane preparation were subjected to SDS-PAGE followed by electrotransfer to polyvinylidene difluoride (PVDF) membrane. The PVDF membrane was incubated with a phosphate-buffered saline/Tween 20 Buffer (140 mM NaCl, […]. 0.1% Tween 20, pH 7.4) and 3% bovine serum albumin. The membrane was then incubated with polyclonal rabbit antisera against the various G protein subunits [RM (Gsα) or 116 (Gi1, Gi2, Gi3α)] at a 1:25,000 (RM) or 1:5,000 (116) dilution (see below for source of antibodies). […] Immunoreactivity was detected with an enhanced chemiluminescence (ECL) western blot detection system (Amersham) in accord with the manufacturer's instructions. The developed autoradiographs were analyzed by densitometry.\nRats were treated with antidepressant via intraperitoneal injection once daily for 21 days, control animals received an equal number and volume of injection of saline. Cerebral cortices from each group were removed. Rat synaptic membrane-enriched fractions were prepared (see Example 1). The ratios of the percentage of Gsα extracted by the two detergents in the treatment versus control groups were compared and are set forth in Table 3 as percentage of control (i.e., each Triton X-100 extract was compared with the untreated Triton X-100 extract, the same was comparison was undertaken for Triton X-114 extracts as well as the remainder). The values shown are means±standard error of the mean of 4-6 experiments."}, "Gsα [2]": {"system": "Gsα", "test": "Cellular localization of Gsα in C6-2B cells, immunofluorescence laser scanning confocal microscopy", "assay_type": "cell-based", "conditions": "for Cells displaying intense Gsα staining at the process tips (and processes): control 64%", "experimental": "C6-2B cells (between passages 30 and 50) were plated onto coverslips and allowed to attach overnight in Dulbecco's modified Eagle's medium. 4.5 g/l glucose, 10% bovine serum, and 100 μg/ml penicillin and streptomycin at 37° C. in a humidified 10% CO2 atmosphere. […] Therefore, the latter treatment paradigm was used in these experiments because it was easier to maintain the cell cultures for 3 days. […] The culture media and drug were changed daily. […] After the treatment duration, the cells were incubated in drug-free media for 45 to 60 minutes before fixation.\nAfter treatment, cells were washed once with phosphate-buffered saline (PBS, […] NaCl, 2.6 mM KCl, 5.4 mM NaαPO4 7H2O, pH 7.4) and fixed with ice-cold methanol for 10 minutes. Cells were then washed three times with PBS followed by 2 h of blocking in 5% normal goat serum/0.2% fish skin gelatin in PBS. Primary antibody was added for 1.5 h, Gsα/RM1 (PerkinElmer Life Sciences, Boston, Mass.) 1:50 and Goα (Santa Cruz Biotechnology, Santa Cruz, Calif.) 2 μg/ml, followed by three washes with PBS. Oregon Green-labeled secondary antibody (Molecular Probes, Eugene, Oreg.) was added at a concentration of 8 μg/ml for 1 h followed by three PBS washes. The coverslips were mounted onto slides with Vectashield (Vector Laboratories. Burlingame, Calif.) containing diamidino-2-phenylindole as a mounting medium. Images were acquired using a Zeiss LSM510 laser-scanning confocal microscope (Carl Zeiss Inc., Thornwood, N.Y.). A single 488-nm beam from an argon/krypton laser was used for excitation of the Oregon Green. Differential interference contrast images were also acquired. Five experiments were performed and coverslips were examined. Approximately 2100 cells from control and desipramine-treated coverslips were counted by two investigators blind to the experimental conditions over the course of the five experiments.\nThe cellular distribution of Gsα was quantified in confocal imaged C6-2B cells using NIH-Image software (http://rsbinfonihpov/nih-image) as describe previously [Southwell et al., Cell Tissue Res., 292:37-45, 1998; Jenkinson et al., Br. J. Pharmacol., 126:131-136, 1999]. Images of 9×1 μm optical, planar sections taken from four randomly selected control and four randomly selected desipramine-treated cells were captured and the middle five sections from each cell were quantified. Total cellular Gsα fluorescence was measured by counting the number of pixels with intensity above threshold (determined by minimum intensity above background in this case 50 pixels). The areas of intensity were numbered and divided visually into those localized to the cell body and those localized to the processes and process tips. The total from each region was divided by the total cell pixel intensity and expressed as a percentage of the total. This was done for each section of each cell and the sections were averaged per cell to give an average percentage total per cell.\nIn a separate investigation, seven sets of 300 cells each from control group and desipramine-treated cells from five experiments were counted to determine the primary localization (processes and process tips or cell body) of Gsα within these cells. The majority of the cells stained positively for Gsα throughout the entire cell, but there was usually an enhancement in one of these regions. […] The counts are expressed as the ratio of process and process tip localization/cell body localization.\nStudies were conducted to determine whether a shift in cellular localization of Gsα occurred in C6-2B cells subjected to antidepressants.\nTwenty-one hundred cells from each group (control versus desipramine-treated) over a series of five experiments were examined to quantify the extent of the antidepressant effect. […] Abnormal cells or those not displaying processes were not included in the cell count. Cells (300-450) were counted per experiment and the ratio of category A cells to category B cells for each group is shown in FIG. 8. […]"}, "[3]": {"conditions": "rat cerebral cortex synaptic membrane, 10 mg/kg i.p. once daily for 21 days, mean ± SEM of 4-6 experiments"}, "[4]": {"conditions": "10 μM desipramine 3 days, individual cells D1-D4"}},
  "note": "Where “and” joins values, the source holds several entries; their conditions need not be identical. Equal values may be shown once. Entries after “also recorded” stand apart in the source; their conditions may differ. Marks after values point to notes of the source that are not given here.",
  "data": [
    {"compound": "CNCCCN1c2ccccc2CCc2ccccc21", "note": "[Desipramine, desipramine]", "values": [
      {"measurement": "GsαL in Triton X-100 extract, % of corresponding value in control group", "setting": "Gsα [1]; [3]", "value": "128.2 ± 9.5^a %"},
      {"measurement": "GsαL in Triton X-114 extract, % of corresponding value in control group", "setting": "Gsα [1]; [3]", "value": "77.3 ± 8.8^a %"},
      {"measurement": "GsαS in Remainder, % of corresponding value in control group", "setting": "Gsα [1]; [3]", "value": "84.9 ± 25.7", "unit": "%"},
      {"measurement": "GsαS in Triton X-100 extract, % of corresponding value in control group", "setting": "Gsα [1]; [3]", "value": "146.4 ± 9.6^b %"},
      {"measurement": "GsαS in Triton X-114 extract, % of corresponding value in control group", "setting": "Gsα [1]; [3]", "value": "71.7 ± 6.8^a %"},
      {"measurement": "GsαL in the Triton X-100 extract versus control", "setting": "Gsα [1]", "value": "significant increase"},
      {"measurement": "GsαL in the Triton X-114 extract versus control", "setting": "Gsα [1]", "value": "concomitant decrease"},
      {"measurement": "Decrease in Gsα localization to the processes and process tips, control versus treated cells", "setting": "Gsα [2]; 10 μM desipramine 3 days", "value": "three-fold decrease"},
      {"measurement": "Percentage of Gsα immunofluorescence distribution, Processes, Average", "setting": "Gsα [2]; 10 μM desipramine 3 days, average of four cells, control 12.0 ± 5.7", "value": "4.1 ± 4.7", "unit": "%"},
      {"measurement": "Percentage of Gsα immunofluorescence distribution, Processes, Average", "setting": "Gsα [2]; 10 μM desipramine 3 days, average of four cells, control 12.0 ± 5.7, listed as desipramine", "value": 4, "unit": "%"},
      {"measurement": "Percentage of Gsα immunofluorescence distribution, Cell Body, Average", "setting": "Gsα [2]; 10 μM desipramine 3 days, average of four cells, control 88.0 ± 5.7", "value": "95.9 ± 4.7", "unit": "%"},
      {"measurement": "Percentage of Gsα immunofluorescence distribution, Cell Body, single cells", "setting": "Gsα [2]; [4]", "value": "91.4% and 92.2% and 100.0% (2×)"},
      {"measurement": "Percentage of Gsα immunofluorescence distribution, Processes, single cells", "setting": "Gsα [2]; [4]", "value": "8.6% and 7.8% and 0.0% (2×)"},
      {"measurement": "Gsα immunofluorescence in cell processes and process tips", "setting": "Gsα [2]; 10 μM, 3 days", "value": "drastically reduced; also recorded: decrease in the cell processes and process tips"},
      {"measurement": "Gsα in the cell body", "setting": "Gsα [2]; 10 μM, 3 days", "value": "increase"},
      {"measurement": "Cells displaying intense Gsα staining at the process tips (and processes)", "setting": "Gsα [2]; 10 μM, 3 days", "value": 32, "unit": "%"}
    ]},
    {"compound": "CNCCC(Oc1ccc(C(F)(F)F)cc1)c1ccccc1", "note": "(centres unmarked) [Fluoxetine, fluoxetine]", "values": [
      {"measurement": "GsαL in Remainder, % of corresponding value in control group", "setting": "Gsα [1]; [3]", "value": "53.8 ± 6.9^a %"},
      {"measurement": "GsαL in Triton X-100 extract, % of corresponding value in control group", "setting": "Gsα [1]; [3]", "value": "118.1 ± 3.4^a %"},
      {"measurement": "GsαL in Triton X-114 extract, % of corresponding value in control group", "setting": "Gsα [1]; [3]", "value": "81.9 ± 4.5^a %"},
      {"measurement": "GsαS in Remainder, % of corresponding value in control group", "setting": "Gsα [1]; [3]", "value": "45.2 ± 8.4^a %"},
      {"measurement": "GsαS in Triton X-100 extract, % of corresponding value in control group", "setting": "Gsα [1]; [3]", "value": "153.8 ± 39.9", "unit": "%"},
      {"measurement": "GsαS in Triton X-114 extract, % of corresponding value in control group", "setting": "Gsα [1]; [3]", "value": "91.6 ± 6.3", "unit": "%"},
      {"measurement": "GsαL in the Triton X-100 extract versus control", "setting": "Gsα [1]", "value": "significant increase"},
      {"measurement": "GsαL in the Triton X-114 extract versus control", "setting": "Gsα [1]", "value": "concomitant decrease"},
      {"measurement": "Gsα immunofluorescence in cell processes and process tips", "setting": "Gsα [2]; 10 μM, 3 days", "value": "loss of staining in the processes and process tips; also recorded: drastic reduction"},
      {"measurement": "Cells displaying intense Gsα staining at the process tips (and processes)", "setting": "Gsα [2]; 10 μM, 3 days", "value": 45, "unit": "%"}
    ]}
  ]
}
